Data as given in ChEMBL document CHEMBL4699523, “Predicting the Human Hepatic Clearance of Acidic and Zwitterionic Drugs” (J Med Chem, 2020).

Key:
in vivo [1] = conditions: cynomolgus monkey, blood and plasma, iv
Description: Ratio of drug level in cynomolgus monkey blood to plasma administered through iv dosing by LC-MS/MS analysis

[2] = human, in vivo, iv
Description: Hepatic clearance in human administered through iv dosing

physchem [3] = assay: physchem
[4] = rat, in vivo, iv, 1 mg/kg
in vitro [5] = conditions: cynomolgus monkey, plasma
Description: Fraction unbound in cynomolgus monkey plasma

[6] = cynomolgus monkey, in vivo, iv, 1 mg/kg
physchem [7] = conditions: buffer, pH 7.4
in vivo [8] = conditions: Wistar Hannover, rat, blood and plasma, iv
Description: Ratio of drug level in Wistar Hannover rat blood to plasma administered through iv dosing by LC-MS/MS analysis

in vitro [9] = conditions: human, plasma
Description: Fraction unbound in human plasma

in vitro [10] = conditions: dog, MDCK, pH 7.4
Description: Apparent permeability in dog MDCKII-LE cells at pH 7.4

in vitro [11] = conditions: rat, plasma
Description: Fraction unbound in rat plasma

clinical = conditions: human, blood and plasma, iv
Description: Ratio of drug level in human blood to plasma administered through iv dosing by LC-MS/MS analysis

in vitro [12] = conditions: human, cryopreserved hepatocytes
physchem [13] = assay: physchem; remark: listed apart in the source
[14] = Ratio of drug level in human blood to plasma administered through oral dosing by LC-MS/MS analysis; type: ADME, cell-free; conditions: blood and plasma
[15] = Hepatic clearance in cynomolgus monkey administered through oral dosing; type: ADME, Macaca fascicularis; conditions: in vivo
[16] = Hepatic clearance in human administered through oral dosing; type: ADME
[17] = Ratio of drug level in cynomolgus monkey blood to plasma administered through oral dosing by LC-MS/MS analysis; type: ADME, cell-free, Macaca fascicularis; conditions: blood and plasma

| blood plasma ratio (in vivo [1]) | CLH [2] [mL/min/kg] | pKa at 0.3 h (physchem [3]) | CLH [4] [mL/min/kg] | fraction unbound (in vitro [5]) | CLH [6] [mL/min/kg] | logD (physchem [7]) | blood plasma ratio (in vivo [8]) | fraction unbound (in vitro [9]) | Papp (in vitro [10]) [×10⁻⁶ cm/s] | fraction unbound (in vitro [11]) | blood plasma ratio (clinical) | CLint scaled at 2 h, 1 µM (in vitro [12]) [mL/min/kg] | pKa at 0.3 h (physchem [13]) | blood plasma ratio [14] | CLH [15] [mL/min/kg] | CLH [16] [mL/min/kg] | blood plasma ratio [17] | Compound |
| --- | --- | --- | --- | --- | --- | --- | --- | --- | --- | --- | --- | --- | --- | --- | --- | --- | --- | --- |
| 0.56 | 5.7 | – | 3.1 | 0.002 | 30.1 | 2 | 0.55 | 0.002 | 3.9 | 0.001 | 0.56 | 37 | 3.6 | – | – | – | – | Cc1nn(-c2cnc(OCC(C)C)c(Cl)c2)c2ccc(C(=O)NS(C)(=O)=O)cc12 [PF-05241328] |
| 0.65 | 5.6 | 5.1 | 7.1 | 0.0263 | 17.8 | 1.2 | 0.65 | 0.008 | 8.5 | 0.008 | 0.65 | 31 | 4.7 | – | – | – | – | O=C(O)C[C@H](O)C[C@H](O)/C=C/c1c(C2CC2)nc2ccccc2c1-c1ccc(F)cc1 [PITAVASTATIN] |
| 0.651 | 7.3 | – | 19.3 | 0.649 | 34.6 | -0.4 | 0.595 | 0.634 | 0.46 | 0.537 | 0.55 | 0.77 | 4.3 | – | – | – | – | CC[C@H](C)C(=O)O[C@H]1C[C@H](O)C=C2C=C[C@H](C)[C@H](CC[C@@H](O)C[C@@H](O)CC(=O)O)[C@H]21 [PRAVASTATIN] |
| 0.735 | 6.8 | – | 28.4 | 0.155 | 27.9 | 0.1 | 0.588 | 0.158 | 0.89 | 0.0421 | 0.569 | 0.86 | 4.3 | – | – | – | – | CC(C)c1nc(N(C)S(C)(=O)=O)nc(-c2ccc(F)cc2)c1/C=C/[C@@H](O)C[C@@H](O)CC(=O)O [ROSUVASTATIN] |
| – | – | – | – | 0.0049 | – | 2.7 | – | 0.0122 | 17 | – | – | 111 | – | 0.612 | 6 | 8.8 | 1.1 | Cn1cc(C(=O)O)c2ccc(N3CCC(OCc4c(-c5c(Cl)cccc5Cl)noc4C4CC4)CC3)cc21 [TERN-101] |

Further lines, the compound ahead of its results:

| Compound | blood plasma ratio (in vivo [1]) | CLH [2] [mL/min/kg] | pKa at 0.3 h (physchem [3]) | CLH [4] [mL/min/kg] | fraction unbound (in vitro [5]) | CLH [6] [mL/min/kg] | logD (physchem [7]) | blood plasma ratio (in vivo [8]) | fraction unbound (in vitro [9]) | Papp (in vitro [10]) [×10⁻⁶ cm/s] | fraction unbound (in vitro [11]) | blood plasma ratio (clinical) | CLint scaled at 2 h, 1 µM (in vitro [12]) [mL/min/kg] | pKa at 0.3 h (physchem [13]) | blood plasma ratio [14] | CLH [15] [mL/min/kg] | CLH [16] [mL/min/kg] | blood plasma ratio [17] |
| --- | --- | --- | --- | --- | --- | --- | --- | --- | --- | --- | --- | --- | --- | --- | --- | --- | --- | --- |
| CCCc1nc2c(C)cc(-c3nc4ccccc4n3C)cc2n1Cc1ccc(-c2ccccc2C(=O)O)cc1 | 0.61 | 10.2 | 3.2 | 4.3 | 0.0125 | 9.2 | 2.4 | 0.65 | 0.006 | 12 | 0.006 | 0.61 | 39 | 4.2 | – | – | – | – |
| O=C(O)[C@@H]1CCC[C@H]1C(=O)c1ccc(-c2ccc(Nc3nc4ccc(F)cc4s3)c(F)c2)cc1 | – | – | 2.4 | – | 0.0014 | – | > 3.5 | – | 0.00086 | 2.3 | – | – | 201 | 4.7 | 0.653 | 2 | 0.59 | 0.617 |
| Cc1cc(O[C@H](CCC(F)(F)F)c2ccc(C(=O)NCCC(=O)O)cc2)cc(C)c1-c1ccc(C(C)(C)C)cc1 | – | – | – | – | 5.6e-05 | – | > 3.5 | – | 3.6e-05 | – | – | – | 1680 | 4.4 | 0.605 | 0.29 | 0.078 | 0.823 |
| Cc1ccc(S(=O)(=O)NCCc2ccc(Oc3ccc(F)c(F)c3)cc2)cc1C(=O)O | – | – | – | – | 0.00107 | – | 1.6 | – | 0.00229 | 7.3 | – | – | 19 | 3.4 | 0.55 | 6.1 | 0.72 | 0.562 |
| COc1ccccc1Oc1c(NS(=O)(=O)c2ccc(C(C)(C)C)cc2)nc(-c2ncccn2)nc1OCCO [BOSENTAN] | 1.19 | 2.2 | – | 15.9 | 0.0422 | 33.1 | 1.2 | 0.69 | 0.0285 | 7.4 | 0.0121 | 0.668 | 16 | 4.9 | – | – | – | – |
| COc1ccccc1[C@H](Cn1c(=O)n(C(C)(C)C(=O)O)c(=O)c2c(C)c(-c3ncco3)sc21)OC1CCOCC1 [FIRSOCOSTAT] | – | – | – | – | 0.0284 | – | 1.1 | – | 0.0172 | 5.5 | – | – | 23 | – | 0.655 | 11.3 | 10 | 0.623 |
| O=C(c1ccccc1)c1ccc2n1CCC2C(=O)O (centres undefined) [KETOROLAC] | 0.687 | 0.19 | – | 1.3 | 0.0148 | 1.2 | -0.6 | 0.55 | 0.0264 | 15 | 0.0216 | 0.792 | 3.1 | – | – | – | – | – |
| Cc1ccc(NC(=O)C2(c3ccc4c(c3)OC(F)(F)O4)CC2)nc1-c1cccc(C(=O)O)c1 [LUMACAFTOR] | – | – | – | – | 0.0045 | – | 2.6 | – | 0.0032 | 25 | – | – | 27 | 4.2 | 0.575 | 0.72 | 0.26 | 0.575 |
| CCC[C@H](c1ccc(C(=O)NCCC(=O)O)cc1)[C@H](c1ccc(Cl)cc1)c1c[nH]c2c(F)cc(C)cc12 [MK-3577] | – | – | – | – | 0.00023 | – | > 3.5 | – | 0.00025 | – | – | – | 571 | 4.1 | 0.55 | 9.3 | 4.9 | 0.95 |
